The source of these data is patent US10570177B2, “P3 peptidylic inhibitors for treating CAG-repeat RNA toxicity in polyglutamine diseases” (The Chinese University of Hong Kong, priority 2017, dated 2020).

The test system of series [1] is HEK293 cells. Briefly: Cellular uptake studies in HEK293 cells (LC/MS). The series is classed as in vitro ADME. The note with it: 3 hr; for cellular uptake: 100 nM peptide. The method, then: HEK293 cells were seeded on a 6-well plate at a density of 6×10^5 and cultured overnight at 37° C. with 5% CO2 in DMEM supplemented with 10% FBS and 1% penicillin-streptomycin. Cells were then treated with 100, 500 or 1000 nM of respective peptide at 37° C. for 3 hr. After treatment, the cells were washed with ice-cold PBS and then lysed by 2% SDS solution. Aliquot (100 μl) of the cell lysate was added with 200 μl acetonitrile and centrifuged at 13000 rcf for 10 min to precipitate the proteins. The collected supernatant was subjected to LC/MS analysis. The protein concentration of the cell lysate was measured using a bicinchoninic acid protein assay kit following Sigma's protocol.

The nature of series [2]: In vitro stability in rat brain homogenate. It counts as in vitro ADME. The settings on record: 37° C. As for the experimental part: (§1) Sprague-Dawley (SD) rats (male, 180-200 g) were supplied by the Laboratory Animal Services Centre at The Chinese University of Hong Kong. All animal studies were conducted under the approval of the Animal Ethics Committee of The Chinese University of Hong Kong, and were performed in accordance with relevant guidelines and regulations. Blank rat brain homogenate was prepared by ultrasonic probe homogenization (Micoson XL-2000, Misonix, Framingdale, N.Y., USA) of brains collected from the control rats. Blank rat plasma was prepared by centrifugation (8000 rcf for 3.5 min) of blood collected from control rats. […] The mixtures were incubated at 37° C. with 100 rpm in a water bath for 1 or 3 hr. The incubation was terminated by addition twice the volume of acetonitrile and centrifugation at 13000 rcf for 10 min. The supernatant was collected for LC/MS/MS analysis.

Series [3] can be described thus: In vitro stability in rat plasma. The series is classed as in vitro ADME. The note with it: 37° C. As for the experimental part: as §1
The nature of series [4]: Brain uptake study in SD rat. The method, then:
SD rats (180-200 g) were anesthetized with an intraperitoneal injection of ketamine (60 mg/kg) and xylazine (6 mg/kg) and received a minor surgery of cannulation with a polythene tube (0.4 mm i.d., 0.8 mm o.d., Harvard Apparatus, Holliston, Mass., USA) in the left jugular vein. The rats received an overnight recovery with free access to food and water. […] For the pharmacokinetic study, after the drug administration, blood samples were collected from the catheter at appropriate time intervals (2, 5, 10, 15, 20, 30, 45, 60, and 90 min). After each collection, 0.2 mL of saline containing 25 IU heparin was injected to compensate for the blood loss. Plasma was collected after centrifugation at 8000 rcf for 3.5 min and stored at −80° C. until analysis. For brain uptake study, at 20 min, the rat was anesthetized and perfused by 500 mL saline, and the whole brain was collected. The brain was wiped by tissue paper to remove excess water, meninges and blood vessels followed by storage at −80° C. until analysis.
To prepare brain homogenate, the whole brain of each rat was minced. Saline (2 mL/g brain) was added followed by ultrasonic probe homogenization on ice. For analysis of P3V8, aliquot of brain homogenate (100 μL) was mixed with 200 μL acetonitrile. The mixture was vortexed for 1 min and followed by centrifugation at 13000 rcf for 10 min to collect the supernatant. […]

In series [5] the test system is DsRedCAG100 flies. Briefly: Pseudopupil assay in DsRedCAG100 Drosophila (expanded CAG RNA neurodegeneration). It counts as in vivo. The settings on record: for suppression of neurotoxicity / retinal degeneration: DsRedCAG100 flies, in words. From the text:
Here the DsRedCAG0/100Drosophila model was utilized to investigate the suppressive effects of the P3 analogs on RNA toxicity. In this model, the CAG repeat is located in the 3′ untranslated region of the DsRed reporter gene-=. The transcribed expanded CAG RNA is not translated into polyQ protein, and thus the toxicity is solely attributed to the expression of DsRedCAG100 RNA. In brief, the expression of expanded CAG RNA causes severe retinal degeneration in the animal that can be quantified by a pseudopupil assay^7. Inhibitors that can suppress neurotoxicity will result in the recovery of the number of rhabdomeres within the ommatidium. To test the derivatives, third instar larvae were fed different amounts of peptide dissolved in sucrose solution for 2 hr and then allowed to culture in standard fly food until the flies were 12 days old, at which time they were sacrificed for the pseudopupil assay.
Flies were raised at 21.5° C. on cornmeal medium supplemented with dry yeast. Fly lines bearing UAS-DsRedCAG0 and UAS-DsRedCAG100 were kind gifts of Professor Nancy Bonini (University of Pennsylvania, USA). The gmr-GAL4 fly line was obtained from Bloomington Drosophila Stock Center. For pseudopupil assay, third instar larvae were fed with various amount of respective peptides dissolved in 2% sucrose solution for 2 hr and then continued to culture in standard fly food at 21.5° C.^38. Pseudopupil assay was performed on 12 day-old adult flies as mentioned previously^39. Images were captured by SPOT Insight CCD camera controlled by the SPOT Advanced software (Diagnostic instruments Inc.). Image processing was performed using the Adobe Photoshop CS software (Adobe). Each experiment was repeated at least 3 times (n=10 fly heads), and consistent results were obtained. For viability test of wild-type flies from egg to adult stage, eggs born within 5 hr were collected and cultured in fly food containing 10 or 50 μM of respective peptides at 21.5° C. Viability from egg-to-adult was calculated as the number of adult flies collected divided by the number of eggs examined. Each experiment was repeated for three times (at least 130 eggs were examined in each group). Two batches of independently synthesized peptides were used in the experiments.

Where [6] appears, read: 1000 ng/mL, incubation for 1 hr.
The mark [7] stands for this setting: 2000 ng/mL, incubation for 1 hr.
Setting [8] is: 2000 ng/mL, incubation for 1 hr, 60 min.
The mark [9] stands for this setting: 2000 ng/mL, incubation for 3 hr.

Values joined by “and” are separate entries in the source; they are usually repeats but may differ in a detail not shown here. Equal entries are not always repeated. Marks after values point to notes of the source that are not given here. Residues, ends and D or L forms follow the SMILES beside them. *: point of attachment. Palmitoyl = CCCCCCCCCCCCCCCC(=O)*

With Ac-DGKSKGIAYIEFK-NH2 [P3V8], the cellular uptake result in series [1] is “no uptake”. Also, the Pecentage of remained in series [2] (setting [6]) was 4.0 ± 1.6%; in series [2] (setting [7]) it was 3.3%; in series [2] (setting [8]), 3.3 ± 0.6%; in series [2] (setting [9]), “almost completely degraded”; in series [3] (setting [7]), 20.7% and 20.7 ± 3.3%; in series [3] (setting [9]), “almost completely degraded”. The remaining at 1 h, 2000 ng/mL in series [2] (male, Sprague-Dawley, rat, rat brain homogenate, 2000 ng/mL, incubation for 1 hr, read-out: Pecentage of remained) worked out at 3%; in series [3] (male, Sprague-Dawley, rat, rat plasma, 2000 ng/mL, incubation for 1 hr, read-out: Pecentage of remained), 21%. In addition, in series [4] (20 min after intravenous administration, 3 μmol/kg), the brain concentration result is “no and not detected”. The pseudopupil score in series [5] (1 μM treatment, 12 day-old flies) was found to be 4.32±0.25. Further, the “suppression of neurotoxicity / retinal degeneration” value in series [5] is listed as “significantly suppressed neurotoxicity”.
Take `CCCCCCCCCCCCCCCC(=O)N[C@@H](CC(=O)O)C(=O)NCC(=O)N[C@@H](CCCCN)C(=O)N[C@@H](CO)C(=O)N[C@@H](CCCCN)C(=O)NCC(=O)N[C@H](C(=O)N[C@@H](C)C(=O)N[C@@H](Cc1ccc(O)cc1)C(=O)N[C@H](C(=O)N[C@@H](CCC(=O)O)C(=O)N[C@@H](Cc1ccccc1)C(=O)N[C@@H](CCCCN)C(N)=O)[C@@H](C)CC)[C@@H](C)CC` [L1P3V8] (Palmitoyl-DGKSKGIAYIEFK-NH2): in series [1], the cellular uptake entry was “low cellular concentration”. Also, in series [1] (500 nM and 1 μM treatment), the “cellular concentration compared to P3V8” value is “higher cellular concentration”. The Pecentage of remained in series [2] (500 ng/mL, incubation for 1 hr) was <20^# %; in series [2] (500 ng/mL, incubation for 3 hr), <20^# %; in series [2] (setting [6]), 22.8 ± 1.2 %; in series [2] (1000 ng/mL, incubation for 3 hr), 15.8 ± 0.7%; in series [2] (setting [8]), 45.0 ± 3.5 %; in series [2] (setting [9]) it was roughly 21.2%. Also, the Pecentage of remained worked out at 21.2 ± 3.0% in series [2] (2000 ng/mL, incubation for 3 hr, 180 min) and 88.1 ± 4.9% in series [3] (500 ng/mL, incubation for 1 hr). Moreover, the remaining at 3 h, 2000 ng/mL in series [2] (male, Sprague-Dawley, rat, tissue homogenate, 2000 ng/mL, incubation for 3 hr, read-out: Pecentage of remained) is roughly 21%. For the same molecule, in series [3] (male, Sprague-Dawley, rat, 1000 ng/mL, incubation for 1 hr, read-out: Pecentage of remained), the remaining at 1 h, 1000 ng/mL came out at 98.7 ± 3.9%. Moreover, the tissue level at time molar at 20 min in series [4] (Sprague-Dawley, rat, in vivo, iv, 3 umol/kg) was determined as 0.013 nmol/g. Besides, the “suppression of neurotoxicity / retinal degeneration” value in series [5] is recorded as “suppressed retinal degeneration”.
